From patent US6935334B2, “Enhancing therapeutic effectiveness of nitric oxide inhalation” (The General Hospital Corporation, priority 2000, dated 2005)

Test system: hypoxic pulmonary vasoconstriction (HPV) in mice
Assay: Redistribution of pulmonary blood flow (QLPA/QPA) after left mainstem bronchus occlusion (LMBO), murine HPV model
Type: in vivo, mouse
Protocol: Group 3: endotoxin-treated+L-NIL. SV129/B6F1 wild-type mice (n=5) were injected intraperitoneally with 10 mg/kg E. coli 011B4 endotoxin dissolved in 0.2 mL saline. Three hours after the endotoxin challenge, mice were treated with L-NIL 5 mg/kg intraperitoneally. Studies were performed 22 hours after the endotoxin challenge. In additional SV129/B6F1 mice with (n=5) and without (n=4) a prior challenge of endotoxin (22 hours earlier), the acute response to an intravenous bolus of 5 mg/kg L-NIL administered during LMBO, was studied.
Group 4: prolonged exposure to 4 or 40 ppm NO. Saline-treated SV129 wild-type mice (n=5) and NOS2-deficient mice (n=5) breathed 40 ppm NO in air for 22 hours and were studied 1 hour after discontinuation of NO inhalation. SV129 wild-type mice (n=5) and NOS2-deficient mice (n=5) breathed 40 ppm NO in air for 22 hours after challenge with 10 mg/kg endotoxin intraperitoneally and were studied 1 hour after discontinuation of NO inhalation. Additional NOS2-deficient mice (n=4) breathed 4 ppm of NO in air for 22 hours after challenge with 10 mg/kg endotoxin intraperitoneally and were studied 1 hour after discontinuation of NO inhalation.
Experimental preparation. Mice were anesthetized by intraperitoneal injection of ketamine (0.1 mg/g body weight [bw]). Tracheostomy and arterial catheterization were performed as described previously (Steudel et al., 1997, Circ. Res. 81:34-41). A custom-made endotracheal tube (22G Angiocath; Becton Dickinson Healthcare Systems, Sandy, Utah, USA), combined with a 2 French Fogarty arterial embolization catheter (Baxter Healthcare Corp., Irvine, Calif., USA) was inserted into the trachea, with the balloon tip of the Fogarty catheter initially remaining in the trachea. Volume-controlled ventilation was initiated at a respiratory rate of 110-120 breaths per minute, at FiO2 1.0, a peak inspiratory pressure of 13 cm H2O, and a positive end-expiratory pressure level of 2-3 cm H2O. A right parasternal thoracotomy was performed, and a small-vessel ultrasonic flow probe (1RB; Transonic Instruments, Ithaca, N.Y.) was placed around the right pulmonary artery and fixed in position using a micromanipulator (X-tra Hand; TechniTool, Plymouth, Pa.). A 4-0 silk suture was positioned around the left main pulmonary artery to allow transient vascular occlusion. A pulmonary artery catheter (PE10) was inserted into the main pulmonary artery by direct puncture. In other experiments, a lower thoracic aortic flow probe was placed as reported previously (Steudel et al., supra).
Blood flow and pressure measurements. Mean systemic arterial pressure (PSA), mean pulmonary artery pressure (PPA), and in some studies PLA, were continuously monitored using biomedical amplifiers (Hewlett Packard 8805C, Palo Alto, Calif.; Siemens Sirecust 960, Danvers, Mass.). Mean lower thoracic aortic flow (QLTAF) and right pulmonary artery flow (QRPA) were measured with small vessel flow probes connected to a flowmeter (T106; Transonic Instruments). In some experiments, left ventricular end-diastolic pressure was measured with a 1.4 Fr. Millar catheter. The catheter was advanced through the right carotid artery into the left ventricle. […] All monitoring equipment was calibrated before each experiment.
Differential measurement of left and right pulmonary artery flow. To assess the contribution of QRPA and left pulmonary artery flow (QLPA) to total pulmonary artery flow (QPA), transient occlusion (90 seconds) of the left pulmonary artery (QLPA) was performed. QRPA during acute left pulmonary artery occlusion was considered to be QPA (i.e., cardiac output) and correlated closely (r2=0.88; y=0.95x+0.38; n=9) with QLTAF. QLPA was calculated as the difference between QRPA during left pulmonary artery occlusion (QPA) and QRPA with a patent left pulmonary artery (QLPA=QPA−QRPA). Absolute values of respective flows were recorded, and the fractional distribution of flow to the right and left lungs (QRPA/QPA and QLPA/QPA) was calculated. […]

[N]=O [NO, Nitric oxide]
reduction of QLPA/QPA after LMBO (endotoxin-treated NOS2-deficient mice after prolonged inhalation of 40 ppm NO for 22 hours): 20±7%
reduction of QLPA/QPA after LMBO (endotoxin-treated NOS2-deficient mice breathing 4 ppm NO for 22 hours): 62±2%
reduction of QLPA/QPA after LMBO (endotoxin-treated wild-type mice breathing 40 ppm NO for 22 hours): 19±10%
reduction of QLPA/QPA after LMBO (saline-treated NOS2-deficient mice after breathing 40 ppm NO for 22 hours, measured 1 hour later): 50±11%
reduction of QLPA/QPA after LMBO (saline-treated wild-type mice after breathing 40 ppm NO for 22 hours, measured 1 hour later): 51±10%
